Where two headings read alike, the source gives them in different places.
Experiments:
[1] = tested on: MRSA strains; experiment: MIC by agar dilution or microbroth dilution method (NCCLS); type: cell-based, Staph. aureus; conditions: for MIC: Staphylococcus aureus
Method: (§1) Bacterial isolates were obtained from human infections. The isolates were maintained frozen in a liquid nitrogen freezer and plated on Trypticase Soy Agar (TSA) plates supplemented with 5% sheep blood. The quality control strain Staph. aureus 29213 was originally acquired from the American Type Culture Collection (Rockville, Md.).
(§2) MICs were determined by an agar dilution method or microbroth dilution method recommended by NCCLS. Synergy was assessed by agar dilution checker-board method. Minimal inhibitory concentrations (MICS) for each separate drug were determined. The fractional inhibitory concentration (FIC) values were calculated by the MIC of Drug A (e.g., sulbactam/ampicillin) and Drug B (e.g., linezolid or arbekacin) in combination/MIC of Drug A or B alone. The FIC index was determined according to the following formula: [formula]

[2] = tested on: Staph. aureus 29213; experiment: MIC, quality control strain; type: cell-based; conditions: for MIC: Staphylococcus aureus, read-out: MIC Values
Method: as §1, §2

[3] = tested on: VRSA strains; experiment: MIC by agar dilution or microbroth dilution method (NCCLS), VRSA strains; type: cell-based, Staph. aureus; conditions: VRSA strains (n = 10); for MIC: Staphylococcus aureus
Method: as §1, §2
In total, 48 MRSA strains were tested, including ten VRSA strains isolated from five different countries in the world, 33 MRSA strains isolated from ten Japanese university hospitals, and five MRSA type strains from Juntendo University, Department of Bacteriology, Tokyo, Japan.

[4] = strain JSCC 581 (lacks the mecA gene)
[5] = strain JSCC 590 (lacks the mecA gene)
[6] = strain ATCC 29213, control sample (Ex. 26)
[7] = strain ATCC29213, control sample (Ex. 37)

## CC1(C)SC2C(NC(=O)C(N)c3ccccc3)C(=O)N2C1C(=O)O (stereo not drawn) [ABPC, α-aminobenzylpenicillin]
[1]; MRSA / NCTC 10442, strain NCTC 10442, read-out: MIC Values
  MIC: < 128 mg/L
[1]; MRSA, MRSA strains (n = 38), read-out: MICs 50%
  MIC: 16 mg/L
[1]; MRSA, MRSA strains (n = 38), read-out: MICs 90%
  MIC: 64 mg/L
[1]; MRSA, strain 85/2082, read-out: MIC Values
  MIC: 32 mg/L
[1]; MRSA, strain 99.3700W, read-out: MIC Values
  MIC: 32 mg/L
[1]; MRSA, strain 99.3759V, read-out: MIC Values
  MIC: 64 mg/L
[1]; MRSA, strain AMC 11094, read-out: MIC Values
  MIC: 16 mg/L
[1]; MRSA, strain BM12612(new), read-out: MIC Values
  MIC: 64 mg/L
[1]; MRSA, strain H1, read-out: MIC Values
  MIC: 16 mg/L
[1]; MRSA, strain HIP 5827, read-out: MIC Values
  MIC: 64 mg/L
[1]; MRSA, strain HIP 5836, read-out: MIC Values
  MIC: 16 mg/L
[1]; MRSA, strain HIP 6297, read-out: MIC Values
  MIC: 16 mg/L
[1]; MRSA, strain HIP 7737, read-out: MIC Values
  MIC: 32 mg/L
[1]; MRSA, strain JSCC 340, read-out: MIC Values
  MIC: 64 mg/L
[1]; MRSA, strain JSCC 351, read-out: MIC Values
  MIC: 32 mg/L
[1]; MRSA, strain JSCC 363, read-out: MIC Values
  MIC: 16 mg/L
[1]; MRSA, strain JSCC 381, read-out: MIC Values
  MIC: 32 mg/L
[1]; MRSA, strain JSCC 390, read-out: MIC Values
  MIC: 32 mg/L
[1]; MRSA, strain JSCC 401, read-out: MIC Values
  MIC: 128 mg/L
[1]; MRSA, strain JSCC 413, read-out: MIC Values
  MIC: 16 mg/L
[1]; MRSA, strain JSCC 431, read-out: MIC Values
  MIC: 64 mg/L
[1]; MRSA, strain JSCC 440, read-out: MIC Values
  MIC: 32 mg/L
[1]; MRSA, strain JSCC 451, read-out: MIC Values
  MIC: 16 mg/L
[1]; MRSA, strain JSCC 463, read-out: MIC Values
  MIC: 16 mg/L
[1]; MRSA, strain JSCC 481, read-out: MIC Values
  MIC: 64 mg/L
[1]; MRSA, strain JSCC 490, read-out: MIC Values
  MIC: 64 mg/L
[1]; MRSA, strain JSCC 501, read-out: MIC Values
  MIC: 32 mg/L
[1]; MRSA, strain JSCC 513, read-out: MIC Values
  MIC: 16 mg/L
[1]; MRSA, strain JSCC 531, read-out: MIC Values
  MIC: 32 mg/L
[1]; MRSA, strain JSCC 540, read-out: MIC Values
  MIC: 32 mg/L
[1]; MRSA, strain JSCC 551, read-out: MIC Values
  MIC: 16 mg/L
[1]; MRSA, strain JSCC 563, read-out: MIC Values
  MIC: 1 mg/L
[1]; MRSA, strain JSCC 581 (lacks the mecA gene), read-out: MIC Values
  MIC: 0.5 mg/L
[1]; MRSA, strain JSCC 590 (lacks the mecA gene), read-out: MIC Values
  MIC: 0.5 mg/L
[1]; MRSA, strain JSCC 601, read-out: MIC Values
  MIC: 16 mg/L
[1]; MRSA, strain JSCC 640, read-out: MIC Values
  MIC: 16 mg/L
[1]; MRSA, strain JSCC 651, read-out: MIC Values
  MIC: 64 mg/L
[1]; MRSA, strain JSCC 663, read-out: MIC Values
  MIC: 16 mg/L
[1]; MRSA, strain JSCC 681, read-out: MIC Values
  MIC: 16 mg/L
[1]; MRSA, strain JSCC 690, read-out: MIC Values
  MIC: 16 mg/L
[1]; MRSA, strain JSCC 701, read-out: MIC Values
  MIC: 32 mg/L
[1]; MRSA, strain JSCC 713, read-out: MIC Values
  MIC: 16 mg/L
[1]; MRSA, strain JSCC 731, read-out: MIC Values
  MIC: 32 mg/L
[1]; MRSA, strain JSCC 740, read-out: MIC Values
  MIC: 16 mg/L
[1]; MRSA, strain JSCC 751, read-out: MIC Values
  MIC: 64 mg/L
[1]; MRSA, strain JSCC 763, read-out: MIC Values
  MIC: 8 mg/L
[1]; MRSA, strain JSCC 781, read-out: MIC Values
  MIC: 16 mg/L
[1]; MRSA, strain JSCC 870, read-out: MIC Values
  MIC: 32 mg/L
[1]; MRSA, strain LIM 2, read-out: MIC Values
  MIC: 32 mg/L
[1]; MRSA, strain Mu 3, read-out: MIC Values
  MIC: 32 mg/L
[1]; MRSA, strain Mu 50, read-out: MIC Values
  MIC: 32 mg/L
[1]; MRSA, strain N315, read-out: MIC Values
  MIC: 8 mg/L
[2]; ATCC29213, strain ATCC 29213, control sample (Ex. 26)
  MIC: 0.5 mg/L
[2]; ATCC29213, strain ATCC29213, control sample (Ex. 37)
  MIC: 0.25 mg/L
[3]; read-out: MICs 50%
  MIC: 32 mg/L
[3]; read-out: MICs 90%
  MIC: 64 mg/L
[3]
  MICs Range: 16 to 64 mg/L

## Cc1onc(-c2ccccc2)c1C(=O)N[C@@H]1C(=O)N2[C@@H]1SC(C)(C)[C@@H]2C(=O)O [MPIPC, oxacillin]
[1]; strain 85/2082
  MIC Values: 64 mg/L
[1]; strain HIP 6297
  MIC Values: 64 mg/L
[1]; strain JSCC 563
  MIC Values: 2 mg/L
[1]; [4]
  MIC Values: 1 mg/L
[1]; [5]
  MIC Values: 1 mg/L
[1]; strain JSCC 601
  MIC Values: 64 mg/L
[1]; strain N315
  MIC Values: 16 mg/L
[2]; [6]
  MIC Values: 0.25 mg/L
[2]; [7]
  MIC Values: 0.25 mg/L

## teicoplanin
[1]; MRSA strains (n = 38)
  MICs 50%: 1 mg/L
  MICs 90%: 2 mg/L
  MICs Range: 0.5 to 4 mg/L
[1]; strain 85/2082
  MIC Values: 1 mg/L
[1]; strain 99.3700W
  MIC Values: 4 mg/L
[1]; strain 99.3759V
  MIC Values: 16 mg/L
[1]; strain AMC 11094
  MIC Values: 16 mg/L
[1]; strain BM12612(new)
  MIC Values: 4 mg/L
[1]; strain H1
  MIC Values: 4 mg/L
[1]; strain HIP 5827
  MIC Values: 16 mg/L
[1]; strain HIP 5836
  MIC Values: 8 mg/L
[1]; strain HIP 6297
  MIC Values: 4 mg/L
[1]; strain HIP 7737
  MIC Values: 16 mg/L
[1]; strain JSCC 340
  MIC Values: 1 mg/L
[1]; strain JSCC 351
  MIC Values: 1 mg/L
[1]; strain JSCC 363
  MIC Values: 1 mg/L
[1]; strain JSCC 381
  MIC Values: 1 mg/L
[1]; strain JSCC 390
  MIC Values: 1 mg/L
[1]; strain JSCC 401
  MIC Values: 2 mg/L
[1]; strain JSCC 413
  MIC Values: 2 mg/L
[1]; strain JSCC 431
  MIC Values: 0.5 mg/L
[1]; strain JSCC 440
  MIC Values: 2 mg/L
[1]; strain JSCC 451
  MIC Values: 2 mg/L
[1]; strain JSCC 463
  MIC Values: 1 mg/L
[1]; strain JSCC 481
  MIC Values: 2 mg/L
[1]; strain JSCC 490
  MIC Values: 2 mg/L
[1]; strain JSCC 501
  MIC Values: 2 mg/L
[1]; strain JSCC 513
  MIC Values: 1 mg/L
[1]; strain JSCC 531
  MIC Values: 1 mg/L
[1]; strain JSCC 540
  MIC Values: 1 mg/L
[1]; strain JSCC 551
  MIC Values: 1 mg/L
[1]; strain JSCC 563
  MIC Values: 2 mg/L
[1]; [4]
  MIC Values: 8 mg/L
[1]; [5]
  MIC Values: 8 mg/L
[1]; strain JSCC 601
  MIC Values: 1 mg/L
[1]; strain JSCC 640
  MIC Values: 1 mg/L
[1]; strain JSCC 651
  MIC Values: 2 mg/L
[1]; strain JSCC 663
  MIC Values: 1 mg/L
[1]; strain JSCC 681
  MIC Values: 0.5 mg/L
[1]; strain JSCC 690
  MIC Values: 1 mg/L
[1]; strain JSCC 701
  MIC Values: 1 mg/L
[1]; strain JSCC 713
  MIC Values: 2 mg/L
[1]; strain JSCC 731
  MIC Values: 1 mg/L
[1]; strain JSCC 740
  MIC Values: 1 mg/L
[1]; strain JSCC 751
  MIC Values: 1 mg/L
[1]; strain JSCC 763
  MIC Values: 1 mg/L
[1]; strain JSCC 781
  MIC Values: 4 mg/L
[1]; strain JSCC 870
  MIC Values: 1 mg/L
[1]; strain LIM 2
  MIC Values: 8 mg/L
[1]; strain Mu 3
  MIC Values: 8 mg/L
[1]; strain Mu 50
  MIC Values: 16 mg/L
[1]; strain N315
  MIC Values: 0.5 mg/L
[1]; strain NCTC 10442
  MIC Values: 2 mg/L
[2]; [6]
  MIC Values: 1 mg/L
[2]; [7]
  MIC Values: 1 mg/L
[3]
  MICs Range: 4 to 16 mg/L

— patent publication US6544991B2, “Compositions and methods for treating bacterial infections” (priority 2000, dated 2003)
